ChEMBL document CHEMBL5154645, “Potent Anti-SARS-CoV-2 Activity by the Natural Product Gallinamide A and Analogues via Inhibition of Cathepsin L” (J Med Chem, 2022)
The source made the active and inactive calls. No cut-off for these calls is given here.

System: SARS-CoV-2
Assay: Antiviral activity against SARS-CoV-2 infected in human A549 cells overexpressing ACE2 assessed as reduction in virus-induced cytopathic effect at 625 nM incubated for 1 hr followed by viral infection measured after 96 hrs by inverted microscopy
Format: functional, organism-based
Conditions: Severe acute respiratory syndrome coronavirus 2, time 97.0 hrs

## CC[C@H](C)[C@@H](C(=O)O[C@@H](CC(C)C)C(=O)N[C@@H](CC(C)C)C(=O)N[C@@H](C)/C=C/C(=O)N1C(=O)C=C(OC)[C@@H]1C)N(C)C [GALLINAMIDE A]
  Activity: Active
